Experimental data reported in ChEMBL document CHEMBL1133255 (Bioorg Med Chem Lett, 2000).

Key:
[1] = biological target: 5-hydroxytryptamine receptor 1B (Homo sapiens, UniProt P28222); experiment: Binding affinity towards cloned human 5-hydroxytryptamine 1B receptor
[2] = biological target: 5-hydroxytryptamine receptor 1D (Homo sapiens, UniProt P28221); experiment: Binding affinity for human 5-hydroxytryptamine 1D receptor
Oryctolagus cuniculus = species: Oryctolagus cuniculus; experiment: The compound was tested for its […] activity using rabbit saphenous vein (RSV) preparation; assay type: functional

Sequence of 5-hydroxytryptamine receptor 1D (P28221 whole entry): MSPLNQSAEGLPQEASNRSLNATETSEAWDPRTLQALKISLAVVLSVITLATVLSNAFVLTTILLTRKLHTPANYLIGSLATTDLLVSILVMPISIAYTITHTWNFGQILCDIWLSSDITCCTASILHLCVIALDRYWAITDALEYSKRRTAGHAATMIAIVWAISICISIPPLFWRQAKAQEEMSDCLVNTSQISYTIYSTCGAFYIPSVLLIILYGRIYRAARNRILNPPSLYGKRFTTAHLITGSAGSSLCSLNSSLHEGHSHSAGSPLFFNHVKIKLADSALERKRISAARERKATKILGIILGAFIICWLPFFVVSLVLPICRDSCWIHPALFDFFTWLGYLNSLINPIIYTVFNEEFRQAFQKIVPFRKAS
Sequence of 5-hydroxytryptamine receptor 1B (P28222 whole entry): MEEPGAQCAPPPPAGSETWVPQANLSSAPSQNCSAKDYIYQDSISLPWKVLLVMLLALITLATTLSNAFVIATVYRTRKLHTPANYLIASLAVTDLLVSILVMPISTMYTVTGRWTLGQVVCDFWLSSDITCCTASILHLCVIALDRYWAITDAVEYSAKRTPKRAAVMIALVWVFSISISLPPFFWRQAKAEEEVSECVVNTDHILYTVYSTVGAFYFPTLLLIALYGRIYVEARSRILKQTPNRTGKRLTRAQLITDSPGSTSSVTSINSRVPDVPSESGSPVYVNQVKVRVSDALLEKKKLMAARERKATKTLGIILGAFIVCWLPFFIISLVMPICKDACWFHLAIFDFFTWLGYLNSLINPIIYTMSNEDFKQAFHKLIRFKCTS

How did the Ki [1] turn out when `Cc1ccc2[nH]cc(C[C@H]3CCCN3C)c2c1` was run?
Its Ki is 118 nM.

What about the Ki [2] of the same molecule?
The Ki was 3.5 nM.

And the EC50 (Oryctolagus cuniculus)?
Its EC50 is 102 nM.

Which Ki [1] does the source give for `CC(C)c1ccc2[nH]cc(CCN3CCCC3)c2c1` here?
Its Ki is 472 nM.

And the Ki [2]?
The Ki was 5.3 nM.

And the EC50 (Oryctolagus cuniculus)?
Its EC50 is 440 nM.

`CN1CCC[C@@H]1Cc1c[nH]c2ccc(C(C)(C)C)cc12` was tested. Which Ki [1] did it give?
Its Ki is 15.5 nM.

And the Ki [2]?
The Ki was 0.25 nM.

And the EC50 (Oryctolagus cuniculus)?
Its EC50 is 51.8 nM.

What does the source list for `CC(C)(C)c1ccc2[nH]cc(CCN3CCCC3)c2c1`?
Ki [1]: 312 nM; Ki [2]: 2.5 nM; EC50 (Oryctolagus cuniculus): 1170 nM

With `CCc1ccc2[nH]cc(CCN3CCCC3)c2c1` as the molecule, how does the Ki [1] read?
Its Ki is 1620 nM.

What about the Ki [2] of the same molecule?
Its Ki is 45 nM.

With `CCc1ccc2[nH]cc(CCN(C)C)c2c1` as the molecule, how does the Ki [2] read?
The Ki was 16 nM.

And the EC50 (Oryctolagus cuniculus)?
The EC50 was 350 nM.

For `CCc1ccc2[nH]cc(C[C@H]3CCCN3C)c2c1`, which Ki [1] is on record?
The Ki was 47 nM.

What about the Ki [2] of the same molecule?
Its Ki is 0.97 nM.

And the EC50 (Oryctolagus cuniculus)?
The EC50 was 14.7 nM.

For `Cn1cc(CCN)c2cc(C(C)(C)C)ccc21`, which Ki [2] is on record?
The Ki was 0.45 nM.

For `CC(C)c1ccc2[nH]cc(CCN(C)C)c2c1`, which Ki [1] is on record?
The Ki was 14.2 nM.

And the Ki [2]?
Its Ki is 0.4 nM.

For `CNS(=O)(=O)Cc1ccc2[nH]cc(CCN(C)C)c2c1`, which EC50 (Oryctolagus cuniculus) is on record?
Its EC50 is 174 nM.

How did the Ki [1] turn out when `CC(C)c1ccc2[nH]cc(C[C@H]3CCCN3C)c2c1` was run?
The Ki was 10.4 nM.

What about the Ki [2] of the same molecule?
The Ki was 0.29 nM.

And the EC50 (Oryctolagus cuniculus)?
Its EC50 is 28.6 nM.
